From US6136336A, “JM216 formulations” (priority 1999, dated 2000)
Entries after “also recorded” stand apart in the source; their conditions may differ.

How the values were obtained:
[1] = In vitro drug absorption through excised rat rectum (Franz diffusion cell); format: in vitro ADME; settings: listed as JM216 bulk drug (non-amorphous)
Description: The rectum was freshly excised from each rat and was opened lengthwise using scissors. The excised rectum, serous membrane side down, was mounted on a Franz diffusion cell (reservoir volume 10 ml, 7 mm i.d. O ring flange). […] Gentamicin solution (10 mg/ml) was added to the reservoir fluid (phosphate buffer, pH 7.3) in the ratio of 1:100.
The various test samples were incorporated into standard suppository bases and then subjected to the in vitro drug absorption test. […] The suppository samples were prepared by fusion method melting the base at 50° C. for fatty bases or at 75° C. for polyethylene glycol water-soluble base. The drug was incorporated into the base at a concentration of 2 mg/80 mg base. Medium chain fatty acids (or Na salts thereof) and surface active agents were also added at the appropriate level.

[2] = cited from earlier work
[3] = Standard dissolution test (phosphate buffer pH 7.5, 37° C.); format: physicochemical; settings: phosphate buffer 1/15 M
From the text: The present inventors first attempted to reduce the particle size of the JM216 powder obtained from chemical synthesis by grinding or milling it to an amorphous state (as confirmed by x-ray diffraction pattern). The amorphous state indicates the disappearance of particles or crystalline drug and a particle size close to the molecular level. […] The addition of β-cyclodextrin or polymers to the JM216 during the grinding did allow obtaining the drug as an amorphous powder by reduction of the aggregation. […] The ratio of drug:β-cyclodextrin or drug:polymer also has some effect on solubility, with solubility generally increasing at higher β-cyclodextrin:drug or polymer:drug ratios. Ratios of drug:β-cyclodextrin or drug:polymer of from about 1:1 to about 1:15 (w/w) can be used with ratios of from about 1:4 to 1:15 being preferred and ratios of from about 1:9 to about 1:15 being most preferred.
Dissolution test: The ground mixture containing 5 mg. of JM216 was transferred directly into 50 ml of phosphate buffer (1/15 M, pH 7.5) kept at 37° C. and was stirred with a magnetic stirrer bar at 300 rpm. An aliquot of the solution was pipetted at the indicated time intervals and filtered through a 0.45 μm membrane filter. The concentration of the dissolved JM216 was determined by high performance liquid chromatography (HPLC).
Grinding of the JM216:β-cyclodextrin or JM216:polymer mixtures may be accomplished by standard procedures, e.g. automatic mortar and pestle machines or a hybridizer (milling machine). The time needed in the grinding process may be readily determined by simple test (period analysis of the mixture by x-ray diffraction studies). A suitable grinding time with the automatic mortar and pestle machine is three hours and with the hybridizer, five minutes.

[4] = Water-solubility of JM216 at 23° C.; format: physicochemical
From the text: Although the oral dosage form of JM216 being pursued in the clinic has obvious advantages over injectable platinum complexes such as cisplatin and carboplatin, it is reported by M. J. McKeage et al in Cancer Chemother. Pharmacol. 36: 451-458 (1995) that the current oral capsule form may have certain pharmacokinetic disadvantages.

[5] = oral capsule, dose levels ≥200 mg/m^2

## CC(=O)[O][Pt]([NH2])([Cl])([Cl])([NH]C1CCCCC1)[O]C(C)=O [JM216, bis-acetato-ammine-dichloro-cyclohexylamine-platinum (IV)]
[1]
  absorption in the rat rectum model (in words): little absorbed in the form of a suspension in water or in fatty suppository bases; also recorded: absorbed to some extent when incorporated into the water-soluble base, polyethylene glycol (PEG)
[2]; [5]
  AUC (dose proportionality): increased less than proportionally to dose
  Cmax (dose proportionality): increased less than proportionally to dose
  interpatient pharmacokinetic variation: greater interpatient pharmacokinetic variation
  urinary platinum recovery: reduced urinary platinum recovery
[2]; oral dosing
  side effects seen with oral dosing: nausea and vomitting
[3]; 1 Min.
  Dissolved JM216: 0.2 mg/mL
[3]; 5 Min.
  Dissolved JM216: 0.3 mg/mL
[3]; 15 Min.
  Dissolved JM216: 0.5 mg/mL
[3]; 30 Min.
  Dissolved JM216: 0.5 mg/mL
[3]; 60 Min.
  Dissolved JM216: 0.5 mg/mL
[4]
  water-solubility: 300 µg/mL
